Test results taken from ChEMBL document CHEMBL5537195, “Novel Covalent Probe Selectively Targeting Glutathione Peroxidase 4 In Vivo: Potential Applications in Pancreatic Cancer Therapy” (J Med Chem, 2024).
Calls of active or inactive are those of the source.

Assays:
[1] = Cmax in Sprague-Dawley rat at 2 mg/kg, iv measured upto 48 hrs by LC-MS/MS analysis; format: ADME, organism-based; conditions: in vivo
[2] = molecular target: T1, Phospholipid hydroperoxide glutathione peroxidase GPX4 (Homo sapiens) (UniProt P36969); experiment: Competitive binding affinity to GPX4 (unknown origin) at 0.2 uM incubated for 5 hrs in presence of 4-(((4-(benzo[d]thiazol-2-yl)phenyl)(methyl)amino)methyl)-N-ethynyl-N-methylbenzenesulfonamide by pull-down based Western blot analysis
T1 sequence (whole entry): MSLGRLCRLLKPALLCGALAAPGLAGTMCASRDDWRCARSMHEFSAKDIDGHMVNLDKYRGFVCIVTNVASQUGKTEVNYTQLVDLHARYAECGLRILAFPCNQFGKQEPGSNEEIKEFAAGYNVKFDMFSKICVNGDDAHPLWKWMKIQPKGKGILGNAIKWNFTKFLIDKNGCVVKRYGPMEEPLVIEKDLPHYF

ASPC1 [3] = experiment: Induction of ferroptosis in human ASPC1 cells assessed as decrease in intracellular GSH level at 5 uM incubated for 5 hrs in absence of […]; format: functional, cell-based
[4] = molecular target: T1, Phospholipid hydroperoxide glutathione peroxidase GPX4 (Homo sapiens); experiment: Binding affinity to GPX4 in human SW1990 cells at 0.2 uM incubated for 1 hr by SDS-PAGE analysis; format: cell-based
[5] = molecular target: T1, Phospholipid hydroperoxide glutathione peroxidase GPX4 (Homo sapiens); experiment: Binding affinity to GPX4 in human ASPC1 cells incubated for 1 hr by SDS-PAGE analysis; format: cell-based; conditions: dose 0.02-0.2 µM
[6] = molecular target: T1, Phospholipid hydroperoxide glutathione peroxidase GPX4 (Homo sapiens); experiment: Competitive binding affinity to GPX4 in human ASPC1 cells at 0.2 uM incubated for 1 hr in presence of ML162; format: cell-based
[7] = molecular target: T1, Phospholipid hydroperoxide glutathione peroxidase GPX4 (Homo sapiens); experiment: Binding affinity to GPX4 in human MIA PaCa-2 cells at 0.2 uM incubated for 1 hr by SDS-PAGE analysis; format: cell-based
[8] = molecular target: T1, Phospholipid hydroperoxide glutathione peroxidase GPX4 (Homo sapiens); experiment: Binding affinity to GPX4 in human ASPC1 cells at 0.2 uM incubated for 12 hr followed by compound washout by SDS-PAGE analysis; format: cell-based
[9] = molecular target: T1, Phospholipid hydroperoxide glutathione peroxidase GPX4 (Homo sapiens); experiment: Binding affinity to GPX4 in human ASPC1 cells assessed as thermal stability at 10 uM at 43 to 64 degreeC for 3 mins by CETSA analysis; format: cell-based
ASPC1 [10] = experiment: Induction of ferroptosis in human ASPC1 cells assessed as cell death at 2 uM in presence of 3-methyladenine; format: functional, cell-based
ASPC1 [11] = experiment: Induction of ferroptosis in human ASPC1 cells assessed as reduction in cell viability incubated for 24 hrs followed by compound washout by CCK-8 assay; format: functional, cell-based; conditions: ASPC1, 24 h
Homo sapiens = organism: Homo sapiens; experiment: Binding affinity to GPX4 U46C mutant (unknown origin) incubated for 1 hr by pull-down based Western blot analysis; conditions: dose 0.2-5 µM
MIA PaCa-2 = experiment: Antiproliferative activity against human MIA PaCa-2 cells assessed as inhibition of cell growth incubated for 72 hrs by CCK-8 assay; format: functional, cell-based; conditions: MIA PaCa-2, 72 h
[12] = molecular target: T1, Phospholipid hydroperoxide glutathione peroxidase GPX4 (Homo sapiens); experiment: Binding affinity to GPX4 in human BXPC-3 cells at 0.2 uM incubated for 1 hr by SDS-PAGE analysis; format: cell-based
[13] = molecular target: T1, Phospholipid hydroperoxide glutathione peroxidase GPX4 (Homo sapiens); experiment: Binding affinity to GPX4 in human Panc1005 cells at 0.2 uM incubated for 1 hr by SDS-PAGE analysis; format: cell-based
[14] = molecular target: T1, Phospholipid hydroperoxide glutathione peroxidase GPX4 (Homo sapiens); experiment: Competitive binding affinity to GPX4 in human ASPC1 cells at 0.2 uM incubated for 1 hr in presence of ML210; format: cell-based
[15] = molecular target: T2, Phosphoglycerate kinase 1 (Homo sapiens) (UniProt P00558); experiment: Binding affinity to PGK1 in human ASPC1 cells at 1 uM incubated for 5 hrs by Western blot analysis; format: cell-based
T2 sequence (whole entry): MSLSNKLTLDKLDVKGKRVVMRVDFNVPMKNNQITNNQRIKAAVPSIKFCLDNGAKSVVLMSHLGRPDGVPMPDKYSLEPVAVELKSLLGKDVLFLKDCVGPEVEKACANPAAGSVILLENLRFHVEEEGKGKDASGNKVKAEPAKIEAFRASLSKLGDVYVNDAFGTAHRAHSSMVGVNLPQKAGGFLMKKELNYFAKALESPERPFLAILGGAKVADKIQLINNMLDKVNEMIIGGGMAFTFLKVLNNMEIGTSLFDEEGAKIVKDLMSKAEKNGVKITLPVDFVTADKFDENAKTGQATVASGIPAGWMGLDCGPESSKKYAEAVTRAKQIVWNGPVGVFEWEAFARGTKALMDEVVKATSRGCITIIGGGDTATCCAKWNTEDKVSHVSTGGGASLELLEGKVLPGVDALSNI

[16] = molecular target: T1, Phospholipid hydroperoxide glutathione peroxidase GPX4 (Homo sapiens); experiment: Binding affinity to GPX4 in human Capan-2 cells at 0.2 uM incubated for 1 hr by SDS-PAGE analysis; format: cell-based
[17] = AUC (0 to t) in Sprague-Dawley rat at 2 mg/kg, iv measured upto 48 hrs by LC-MS/MS analysis; format: ADME, organism-based; conditions: in vivo
[18] = molecular target: T1, Phospholipid hydroperoxide glutathione peroxidase GPX4 (Homo sapiens); experiment: Competitive binding affinity to GPX4 in human ASPC1 cells at 0.2 uM incubated for 1 hr in presence of ML162 by immunofluorescence based confocal microscopic analysis; format: cell-based
ASPC1 [19] = experiment: Induction of ferroptosis in human ASPC1 cells assessed as reduction in cell viability incubated for 72 hrs by CCK-8 assay; format: functional, cell-based; conditions: ASPC1, 72 h
[20] = Toxicity in NOD-SCID mouse xenografted with human ASPC1 cells assessed as mortality at 10 mg/kg, ip administered for once daily for 14 days; format: organism-based; conditions: in vivo, 336 h, time 14 day
[21] = molecular target: T1, Phospholipid hydroperoxide glutathione peroxidase GPX4 (Homo sapiens); experiment: Binding affinity to GPX4 in human HPAC cells at 0.2 uM incubated for 1 hr by SDS-PAGE analysis; format: cell-based
ASPC1 [22] = experiment: Antiproliferative activity against human AsPC1 cells assessed as inhibition of cell growth incubated for 72 hrs by CCK-8 assay; format: functional, cell-based; conditions: ASPC1, 72 h
[23] = molecular target: T1, Phospholipid hydroperoxide glutathione peroxidase GPX4 (Homo sapiens); experiment: Binding affinity to GPX4 in human ASPC1 cells at 0.2 uM incubated for 1 hr in presence of 4-(((4-(benzo[d]thiazol-2-yl)phenyl)(methyl)amino)methyl)-N-ethynyl-N-methylbenzenesulfonamide by SDS-PAGE analysis; format: cell-based
ASPC1 [24] = experiment: Induction of ferroptosis in human ASPC1 cells assessed as effect on ROS level at 1 uM incubated for 3 hrs in absence of […]; format: functional, cell-based
ASPC1 [25] = experiment: Induction of ferroptosis in human ASPC1 cells assessed as decrease in intracellular GSH level at 5 uM incubated for 5 hrs in presence of […]; format: functional, cell-based
ASPC1 [26] = experiment: Induction of ferroptosis in human ASPC1 cells assessed as reduction in cell viability incubated for 72 hrs followed by compound washout by CCK-8 assay; format: functional, cell-based; conditions: ASPC1, 72 h
ASPC1 [27] = experiment: Induction of ferroptosis in human ASPC1 cells assessed as cell death at 2 uM in presence of Necrostatin-1; format: functional, cell-based
Mus musculus = experiment: In vivo target engagement at GPX4 in SCID mouse at 10 mg/kg, ip qd administered for 14 days and measured after 2 hrs by pull-down based Western blot analysis; format: functional, organism-based; conditions: time 14.0 day
[28] = molecular target: T1, Phospholipid hydroperoxide glutathione peroxidase GPX4 (Homo sapiens); experiment: Binding affinity to GPX4 in human ASPC1 cells incubated for 1 hr by imaging analysis; format: cell-based; conditions: dose 0.2-5 µM
[29] = molecular target: Large ribosomal subunit protein eL28 (Homo sapiens) (UniProt P46779); experiment: Binding affinity to RL28 in human ASPC1 cells at 1 uM incubated for 5 hrs by Western blot analysis; format: cell-based

C#CCN(Cc1ccc(S(=O)(=O)N(C)C#C)cc1)c1ccc(-c2nc3ccccc3s2)cc1
14 nM: IC50 (ASPC1 [19])
Non-Toxic: Activity [20]
inactive: Activity (ASPC1 [10]) | Activity [16] | Activity [18] | Activity (ASPC1 [27])
62 nM: IC50 (ASPC1 [11])
active: Activity [2] | Activity (ASPC1 [3]) | Activity [4] | Activity [5] Dose-Dependent Effect | Activity [6] | Activity [7] | Activity [8] | Activity [9] | Activity (Homo sapiens) | Activity [12] | Activity [13] | Activity [14] | Activity [15] | Activity [21] | Activity [23] | Activity (ASPC1 [24]) | Activity (ASPC1 [25]) | Activity (Mus musculus) | Activity [28] Dose-Dependent Effect | Activity [29]
22 nM: IC50 (ASPC1 [22])
20 nM: IC50 (MIA PaCa-2)
915 ng·h/mL: AUC(0-t) at 48 h [17]
29 nM: IC50 (ASPC1 [26])
2250 ng/mL: Cmax [1]
